This is an account of results in paper PMC6632053, “Incorporation of Putative Helix-Breaking Amino Acids in the Design of Novel Stapled Peptides: Exploring Biophysical and Cellular Permeability Properties” (Molecules, 2019).

In one data set the target is T1, human Mdm2 1–125 (Homo sapiens, UniProt Q00987).
T1 construct: GST (N); His6 (internal); TEV cleavage site ENLYFQG (internal); made in house; host or cells: Escherichia coli BL21 (DE3) Rosetta T1R
Put plainly: Mdm2 binding assay (competitive fluorescence anisotropy/polarization). Conditions: competitive fluorescence polarization, read-out: Mdm2 (nM), Mdm2 binding (Kd). On the procedure: The TEV (tobacco etch virus) cleavage site was changed from ENLYFQS to ENLYFQG to give a fusion protein with the following sequence:
Titrations were carried out with the concentration of Mdm2 held constant at 250 nM and the labeled peptide at 50 nM. The competing molecules were then titrated against the complex of the FAM-labeled peptide and protein. Apparent Kd values were determined by fitting the experimental data to the equations shown below:(2) r=r0+(rb−r0)×2(d^2−3e)cos(θ/3)−9/3Kd1+2(d^2−3e)cos(θ/3)−dd=Kd1+Kd2+[L]st+[L]t−[P]te=([L]t−[P]t)Kd1+([L]st−[P]t)Kd2+Kd1Kd2f=−Kd1Kd2[P]tθ=arcos[−2d^3+9de−27f/2(d^2−3e)^3] where [L]st and [L]t denote labeled ligand and total unlabeled ligand input concentrations, respectively. Kd2 is the dissociation constant of the interaction between the unlabeled ligand and the protein. In all competition experiments, it was assumed that [P]t > [L]st, otherwise considerable amounts of free labeled ligand would always be present and would interfere with measurements. Kd1 is the apparent Kd for the labeled peptide used and was experimentally determined as described in the previous paragraph. The FAM-labeled peptide was dissolved in dimethyl sulfoxide (DMSO) at 1 mM and diluted into the experimental buffer. Readings were carried out with an Envision Multilabel Reader (PerkinElmer). Experiments were carried out in PBS (2.7 mM KCl, 137mM NaCl, 10 mM Na2HPO4, and 2 mM KH2PO4 (pH 7.4)) and 0.1% Tween 20 buffer. All titrations were carried out in triplicate. Curve-fitting was carried out using Prism 4.0 (GraphPad). […] Negative control titrations of the ligands under investigation were also carried out with the fluorescently labeled peptide (in the absence of Mdm2) to ensure no interactions were occurring between the ligands and the FAM-labeled peptide.
For orientation: Polarisation of emitted light reports the rotation of a fluorescent probe.

Data set [1] relates to p53 responsive β-lactamase reporter in HCT116 cells. Put plainly: p53 beta-lactamase reporter gene cellular functional assay. Format: cell-based. Conditions: p53 reporter assay, HCT116, read-out: Cellular (µM), cellular activity (EC50). The procedure: HCT116 cells were stably transfected with a p53 responsive β-lactamase reporter and were seeded into a 384-well plate at a density of 8000 cells per well. Cells were maintained in McCoy’s 5A Medium with 10% fetal bovine serum (FBS), Blasticidin, and Penicillin/Streptomycin. The cells were incubated overnight, followed by removal of cell growth media and replacement with Opti-MEM either containing 0% FBS or 10% FBS. […] The final working concentration of DMSO was 0.5%. β-lactamase activity was detected using the ToxBLAzer Dual Screen (Invitrogen), as per the manufacturer’s instructions. Measurements were made using the Envision multiplate reader (Perkin–Elmer).

A short description of data set [2]: Circular dichroism (CD) α-helicity. Conditions: for Helicity (%): CD of free peptide, 25 °C, 1 mM Hepes pH 7.4, 5% methanol. Format: physicochemical. On the procedure:
A total of 5 µL of the 10 mM stock peptide was mixed with 45 µL of 100% methanol, and dried for 2 h in the SpeedVac concentrator (Thermo Scientific). The dried peptide was reconstituted in a buffer (1 mM Hepes pH 7.4 and 5% methanol) to a concentration of 1 mM. The peptide sample was placed in a quartz cuvette with a path length of 0.2 cm. The peptide concentration was determined by the absorbance of the peptide at […]. The CD spectrum was recorded from 300 to 190 nm using the Chirascan-plus qCD machine (Applied Photophysics, Surrey, UK), at 25 °C. All experiments were done in duplicates. The CD spectrum was converted to mean residue ellipticity, before deconvolution and estimation of the secondary structure components of the peptide using the CDNN software (distributed by Applied Photophysics).
(Circular dichroism is the unequal absorption of left and right circularly polarised light.)

The Kd is the equilibrium constant for the complex coming apart. By EC50 is commonly meant the concentration at which the effect is half-maximal.

“And” between values parts separate entries of the source, which are not always exact repeats. Equal entries are not always repeated. Where two headings read alike, the source gives them in different places. Bridge positions count the residues as written; N and C are the ends. Square brackets hold non-standard residues; d marks the D form. Peptide text beside a SMILES is read from it. R8 = C=CCCCCCC[C@@](C)(N)C(=O)O; Cba = N[C@@H](CC1CCC1)C(=O)O; S5 = C=CCCC[C@](C)(N)C(=O)O

T1 sequence (Q00987 with tags, fused parts or gaps): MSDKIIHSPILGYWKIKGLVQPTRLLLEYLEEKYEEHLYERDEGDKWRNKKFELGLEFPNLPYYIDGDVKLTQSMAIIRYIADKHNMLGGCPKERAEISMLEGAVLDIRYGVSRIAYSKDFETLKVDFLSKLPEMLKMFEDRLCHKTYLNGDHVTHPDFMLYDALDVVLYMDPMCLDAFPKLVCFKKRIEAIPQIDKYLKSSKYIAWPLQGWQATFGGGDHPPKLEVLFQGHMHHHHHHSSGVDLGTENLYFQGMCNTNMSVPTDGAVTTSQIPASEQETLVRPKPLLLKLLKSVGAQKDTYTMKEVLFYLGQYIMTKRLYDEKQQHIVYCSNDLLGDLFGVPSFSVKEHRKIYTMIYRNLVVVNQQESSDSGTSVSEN

For the compound `CC(=O)N[C@@H](CC(C)C)C(=O)N[C@H](C(=O)N[C@@H](Cc1ccccc1)C(=O)N[C@]1(C)CCCCCCC=CCCC[C@@](C)(C(=O)N[C@@H](CO)C(=O)N[C@@H](C)C(=O)N[C@@H](C)C(N)=O)NC(=O)[C@H](CC2CCC2)NC(=O)[C@H](CC(C)C)NC(=O)[C@H](CCC(N)=O)NC(=O)[C@H](Cc2c[nH]c3ccccc23)NC(=O)[C@H](Cc2ccc(O)cc2)NC(=O)[C@H](C)NC1=O)[C@@H](C)O` [Peptide E5A] (Ac-LTF[R8]AYWQL[Cba][S5]SAA-NH2; staple 4-11), the Kd at human Mdm2 1–125 (Table 1) amounted to 29.8 nM. The EC50 in data set [1] (Table 1) amounted to 0.18 µM. Moreover, in data set [2] (Table 1), the “Helicity (%)” value was determined as 27.6%.

Regarding `CC(=O)N[C@@H](CCCCN=[N+]=[N-])C(=O)NCCC(=O)N[C@@H](CC(C)C)C(=O)N[C@H](C(=O)N[C@@H](Cc1ccccc1)C(=O)N[C@]1(C)CCCCCCC=CCCC[C@@](C)(C(=O)N[C@@H](CO)C(=O)N[C@@H](C)C(=O)N[C@@H](C)C(N)=O)NC(=O)[C@H](CC2CCC2)NC(=O)[C@H](CCC(N)=O)NC(=O)[C@H](C)NC(=O)[C@H](Cc2c[nH]c3ccccc23)NC(=O)[C@H](Cc2ccc(O)cc2)NC(=O)CNC1=O)[C@@H](C)O` [Peptide E5G], at human Mdm2 1–125 (Table 2), the Kd was 61.8 nM. In addition, the EC50 in data set [1] (Table 2) is 0.26 µM. The “α-helicity by CD” value in data set [2] is 28.6%. In addition, the “Helicity (%)” value in data set [2] (Table 2) was found to be 28.6%.

Take `CC(=O)N[C@@H](CC(C)C)C(=O)N[C@H](C(=O)N[C@@H](C)C(=O)N[C@]1(C)CCCCCCC=CCCC[C@@](C)(C(=O)N[C@@H](CO)C(=O)N[C@@H](C)C(=O)N[C@@H](C)C(N)=O)NC(=O)[C@H](CC2CCC2)NC(=O)[C@H](CC(C)C)NC(=O)[C@H](CCC(N)=O)NC(=O)[C@H](Cc2c[nH]c3ccccc23)NC(=O)[C@H](Cc2ccc(O)cc2)NC(=O)[C@H](CCC(=O)O)NC1=O)[C@@H](C)O` [Peptide F3A] (Ac-LTA[R8]EYWQL[Cba][S5]SAA-NH2; staple 4-11): at human Mdm2 1–125 (Table 1), the Kd stood at 3600 nM. Further, the EC50 in data set [1] (Table 1) was 37 µM. Also, in data set [2] (Table 1), the “Helicity (%)” value is given as 48.4%.

`CC(=O)N[C@@H](C)C(=O)N[C@H](C(=O)N[C@@H](Cc1ccccc1)C(=O)N[C@]1(C)CCCCCCC=CCCC[C@@](C)(C(=O)N[C@@H](CO)C(=O)N[C@@H](C)C(=O)N[C@@H](C)C(N)=O)NC(=O)[C@H](CC2CCC2)NC(=O)[C@H](CC(C)C)NC(=O)[C@H](CCC(N)=O)NC(=O)[C@H](Cc2c[nH]c3ccccc23)NC(=O)[C@H](Cc2ccc(O)cc2)NC(=O)[C@H](CCC(=O)O)NC1=O)[C@@H](C)O` [Peptide L1A] (Ac-ATF[R8]EYWQL[Cba][S5]SAA-NH2; staple 4-11): at human Mdm2 1–125 (Table 1), the Kd came out at 17.6 nM. For the same compound, the EC50 in data set [1] (Table 1) was found to be 0.5 µM. The “Helicity (%)” value in data set [2] (Table 1) is 53.3%.

With `CC(=O)N[C@@H](CCCCN=[N+]=[N-])C(=O)NCCC(=O)NCC(=O)N[C@H](C(=O)N[C@@H](Cc1ccccc1)C(=O)N[C@]1(C)CCCCCCC=CCCC[C@@](C)(C(=O)N[C@@H](CO)C(=O)N[C@@H](C)C(=O)N[C@@H](C)C(N)=O)NC(=O)[C@H](CC2CCC2)NC(=O)[C@H](CCC(N)=O)NC(=O)[C@H](C)NC(=O)[C@H](Cc2c[nH]c3ccccc23)NC(=O)[C@H](Cc2ccc(O)cc2)NC(=O)[C@H](CCC(=O)O)NC1=O)[C@@H](C)O` [Peptide L1G], the Kd on human Mdm2 1–125 (Table 2) was found to be 22.1 nM. Moreover, the EC50 in data set [1] (Table 2) turned out to be 1.6 µM. Further, the “Helicity (%)” value in data set [2] (Table 2) was found to be 44.6%.

With `CC(=O)N[C@@H](CCCCN=[N+]=[N-])C(=O)NCCC(=O)N1CCC[C@H]1C(=O)N[C@H](C(=O)N[C@@H](Cc1ccccc1)C(=O)N[C@]1(C)CCCCCCC=CCCC[C@@](C)(C(=O)N[C@@H](CO)C(=O)N[C@@H](C)C(=O)N[C@@H](C)C(N)=O)NC(=O)[C@H](CC2CCC2)NC(=O)[C@H](CCC(N)=O)NC(=O)[C@H](C)NC(=O)[C@H](Cc2c[nH]c3ccccc23)NC(=O)[C@H](Cc2ccc(O)cc2)NC(=O)[C@H](CCC(=O)O)NC1=O)[C@@H](C)O` [Peptide L1P], the Kd on human Mdm2 1–125 (Table 2) was determined as 21.9 nM. For the same compound, in data set [1] (Table 2), the EC50 was found to be 0.75 µM. In addition, in data set [2] (Table 2), the “Helicity (%)” value turned out to be 41.6%.

As for `CC(=O)N[C@@H](CC(C)C)C(=O)N[C@H](C(=O)N[C@@H](Cc1ccccc1)C(=O)N[C@]1(C)CCCCCCC=CCCC[C@@](C)(C(=O)N[C@@H](CO)C(=O)N[C@@H](C)C(=O)N[C@@H](C)C(N)=O)NC(=O)[C@H](CC2CCC2)NC(=O)[C@H](C)NC(=O)[C@H](CCC(N)=O)NC(=O)[C@H](Cc2c[nH]c3ccccc23)NC(=O)[C@H](Cc2ccc(O)cc2)NC(=O)[C@H](CCC(=O)O)NC1=O)[C@@H](C)O` [Peptide L9A] (Ac-LTF[R8]EYWQA[Cba][S5]SAA-NH2; staple 4-11), the dissociation constant (Kd) on human Mdm2 1–125 (Table 1) is 12 nM. The EC50 in data set [1] (Table 1) was 0.16 µM. The “Helicity (%)” value in data set [2] (Table 1) is listed as 48.7%.

In the case of `CC(=O)N[C@@H](CC(C)C)C(=O)N[C@H](C(=O)N[C@@H](Cc1ccccc1)C(=O)N[C@]1(C)CCCCCCC=CCCC[C@@](C)(C(=O)N[C@@H](CO)C(=O)N[C@@H](C)C(=O)N[C@@H](C)C(N)=O)NC(=O)[C@H](CC2CCC2)NC(=O)[C@H](CC(C)C)NC(=O)[C@H](C)NC(=O)[C@H](Cc2c[nH]c3ccccc23)NC(=O)[C@H](Cc2ccc(O)cc2)NC(=O)[C@H](CCC(=O)O)NC1=O)[C@@H](C)O` [Peptide Q8A], at human Mdm2 1–125 (Table 1), the Kd came to 26.5 nM. For the same compound, the EC50 in data set [1] (Table 1) is 0.1 µM. For the same compound, the “Helicity (%)” value in data set [2] (Table 1) is 33.4%.

In the case of `CC(=O)N[C@@H](CCCCN=[N+]=[N-])C(=O)NCCC(=O)N[C@@H](CC(C)C)C(=O)N[C@H](C(=O)N[C@@H](Cc1ccccc1)C(=O)N[C@]1(C)CCCCCCC=CCCC[C@@](C)(C(=O)N[C@@H](CO)C(=O)N[C@@H](C)C(=O)N[C@@H](C)C(N)=O)NC(=O)[C@H](CC2CCC2)NC(=O)CNC(=O)[C@H](C)NC(=O)[C@H](Cc2c[nH]c3ccccc23)NC(=O)[C@H](Cc2ccc(O)cc2)NC(=O)[C@H](CCC(=O)O)NC1=O)[C@@H](C)O` [Peptide Q9G], the Kd on human Mdm2 1–125 (Table 2) came to 42 nM. For the same compound, the EC50 in data set [1] (Table 2) is 0.68 µM. For the same compound, the “Helicity (%)” value in data set [2] (Table 2) stood at 38.8%.

Take `CC(=O)N[C@@H](CCCCN=[N+]=[N-])C(=O)NCCC(=O)N[C@@H](CC(C)C)C(=O)N[C@H](C(=O)N[C@@H](Cc1ccccc1)C(=O)N[C@]1(C)CCCCCCC=CCCC[C@@](C)(C(=O)N[C@@H](CO)C(=O)N[C@@H](C)C(=O)N[C@@H](C)C(N)=O)NC(=O)[C@H](CC2CCC2)NC(=O)[C@@H]2CCCN2C(=O)[C@H](C)NC(=O)[C@H](Cc2c[nH]c3ccccc23)NC(=O)[C@H](Cc2ccc(O)cc2)NC(=O)[C@H](CCC(=O)O)NC1=O)[C@@H](C)O` [Peptide Q9P]: the Kd on human Mdm2 1–125 (Table 2) came out at 77.1 nM. Moreover, the EC50 in data set [1] (Table 2) stood at 3.1 µM. The “Helicity (%)” value in data set [2] (Table 2) is reported as 27.4%. For the same compound, the “α-helicity by CD” value in data set [2] (listed as Pro^9) is < 30% and 27.4%.

For the compound `CC(=O)N[C@@H](CC(C)C)C(=O)N[C@H](C(=O)N[C@@H](Cc1ccccc1)C(=O)N[C@]1(C)CCCCCCC=CCCC[C@@](C)(C(=O)N[C@@H](C)C(=O)N[C@@H](C)C(=O)N[C@@H](C)C(N)=O)NC(=O)[C@H](CC2CCC2)NC(=O)[C@H](CC(C)C)NC(=O)[C@H](CCC(N)=O)NC(=O)[C@H](Cc2c[nH]c3ccccc23)NC(=O)[C@H](Cc2ccc(O)cc2)NC(=O)[C@H](CCC(=O)O)NC1=O)[C@@H](C)O` [Peptide S12A] (Ac-LTF[R8]EYWQL[Cba][S5]AAA-NH2; staple 4-11), the Kd at human Mdm2 1–125 (Table 1) was 20.4 nM. In data set [1] (Table 1), the EC50 was determined as 0.35 µM. The “Helicity (%)” value in data set [2] (Table 1) was determined as 36.5%.
